Results: patent publication US20220323406A1, “METHODS AND COMPOSITIONS FOR DIFFERENTIATING STEM CELLS” (Massachusetts Institute of Technology, priority 2019, published 2022)
Where a name gives a salt, the structure may show the parent alone.

Key:
Conditions in all cases: primary screen
[1] = system: ENR+CD organoids (ISC to Paneth cell differentiation); test: Primary screen: CCh-stimulated lysozyme secretion LYZ.S, 2.5-D 384-well ENR+CD organoid differentiation; type: cell-based, mouse
Source text: (§1) High-throughput screening.

[2] = system: ENR+CD organoids (ISC to Paneth cell differentiation); test: Primary screen: basal (non-stimulated) lysozyme secretion LYZ.NS, 2.5-D 384-well ENR+CD organoid differentiation; type: cell-based, mouse
Source text: as §1

[3] = system: ENR+CD organoids; test: Primary screen: ATP (CellTiter-Glo 3D, CTG) cell number/viability, 2.5-D 384-well ENR+CD organoids;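 also: compounds given at plating and again on day 3 over a 6-day differentiation from ENR+CV stem-cell-enriched precursors, ATP measured on day 6, plate median as control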

C[C@@H]1CN(CC(=O)Nc2ccc3c(c2)Cc2cccc(-c4cc(=O)cc(N5CCOCC5)o4)c2S3)C[C@H](C)O1 [KU-60019]
Dose.FC.LYZ.S (log2 fold change) ([1]; dose 0.08 uM): 0.230
Dose.FC.LYZ.S (log2 fold change) ([1]; dose 0.40 uM): 0.073
Dose.FC.LYZ.S (log2 fold change) ([1]; dose 2.00 uM): −0.049
Dose.FC.LYZ.S (log2 fold change) ([1]; dose 10.00 uM): −0.222
Dose.FC.LYZ.NS (log2 fold change) ([2]; dose 0.08 uM): 0.042
Z.LYZ.NS (standard z score) ([2]; dose 0.08 uM): 0.365
Dose.FC.LYZ.NS (log2 fold change) ([2]; dose 0.40 uM): −0.001
Z.LYZ.NS (standard z score) ([2]; dose 0.40 uM): −0.012
Dose.FC.LYZ.NS (log2 fold change) ([2]; dose 2.00 uM): −0.015
Z.LYZ.NS (standard z score) ([2]; dose 2.00 uM): −0.132
Dose.FC.LYZ.NS (log2 fold change) ([2]; dose 10.00 uM): −0.088
Z.LYZ.NS (standard z score) ([2]; dose 10.00 uM): −0.769
Dose.FC.CTG (log2 fold change) ([3]; dose 0.08 uM): 0.114
Dose.FC.CTG (log2 fold change) ([3]; dose 0.40 uM): 0.039
Dose.FC.CTG (log2 fold change) ([3]; dose 2.00 uM): 0.121
Dose.FC.CTG (log2 fold change) ([3]; dose 10.00 uM): −0.522

CNCc1ccc(-c2cc(-c3nc(-c4ccc(S(=O)(=O)C(C)C)cc4)cnc3N)on2)cc1 [VE-822]
Dose.FC.LYZ.S ([1]; dose 0.08 uM): 0.104 log2 fold change
Dose.FC.LYZ.S ([1]; dose 0.40 uM): −0.064 log2 fold change
Dose.FC.LYZ.S ([1]; dose 2.00 uM): −0.302 log2 fold change
Dose.FC.LYZ.S ([1]; dose 10.00 uM): −0.321 log2 fold change
Dose.FC.LYZ.NS ([2]; dose 0.08 uM): 0.058 log2 fold change
Z.LYZ.NS (standard z score) ([2]; dose 0.08 uM): 0.505
Dose.FC.LYZ.NS ([2]; dose 0.40 uM): −0.040 log2 fold change
Z.LYZ.NS (standard z score) ([2]; dose 0.40 uM): −0.351
Dose.FC.LYZ.NS ([2]; dose 2.00 uM): −0.220 log2 fold change
Z.LYZ.NS (standard z score) ([2]; dose 2.00 uM): −1.913
Dose.FC.LYZ.NS ([2]; dose 10.00 uM): −0.210 log2 fold change
Z.LYZ.NS (standard z score) ([2]; dose 10.00 uM): −1.825
Dose.FC.CTG ([3]; dose 0.08 uM): −0.147 log2 fold change
Dose.FC.CTG ([3]; dose 0.40 uM): −0.287 log2 fold change
Dose.FC.CTG ([3]; dose 2.00 uM): −0.717 log2 fold change
Dose.FC.CTG ([3]; dose 10.00 uM): −1.763 log2 fold change

O=C1C(=O)N(Cc2ccc(Cl)c(Cl)c2)c2ccccc21 [Apoptosis Activator 2]
Dose.FC.LYZ.S ([1]; dose 0.08 uM): 0.132 log2 fold change
Dose.FC.LYZ.S ([1]; dose 0.40 uM): 0.073 log2 fold change
Dose.FC.LYZ.S ([1]; dose 2.00 uM): −0.009 log2 fold change
Dose.FC.LYZ.S ([1]; dose 10.00 uM): −0.252 log2 fold change
Dose.FC.LYZ.NS ([2]; dose 0.08 uM): 0.149 log2 fold change
Z.LYZ.NS (standard z score) ([2]; dose 0.08 uM): 1.302
Dose.FC.LYZ.NS ([2]; dose 0.40 uM): 0.033 log2 fold change
Z.LYZ.NS (standard z score) ([2]; dose 0.40 uM): 0.290
Dose.FC.LYZ.NS ([2]; dose 2.00 uM): −0.006 log2 fold change
Z.LYZ.NS (standard z score) ([2]; dose 2.00 uM): −0.049
Dose.FC.LYZ.NS ([2]; dose 10.00 uM): −0.199 log2 fold change
Z.LYZ.NS (standard z score) ([2]; dose 10.00 uM): −1.734
Dose.FC.CTG ([3]; dose 0.08 uM): 0.304 log2 fold change
Z.CTG (standard z score) ([3]; dose 0.08 uM): 0.725
Dose.FC.CTG ([3]; dose 0.40 uM): 0.262 log2 fold change
Z.CTG (standard z score) ([3]; dose 0.40 uM): 0.626
Dose.FC.CTG ([3]; dose 2.00 uM): 0.082 log2 fold change
Z.CTG (standard z score) ([3]; dose 2.00 uM): 0.195
Dose.FC.CTG ([3]; dose 10.00 uM): −0.158 log2 fold change
Z.CTG (standard z score) ([3]; dose 10.00 uM): −0.378

CC12CC3CC(C)(C1)CC(N)(C3)C2 [Memantine HCl]
Dose.FC.LYZ.S (log2 fold change) ([1]; dose 0.08 uM): 0.091
Dose.FC.LYZ.S (log2 fold change) ([1]; dose 0.40 uM): 0.017
Dose.FC.LYZ.S (log2 fold change) ([1]; dose 2.00 uM): 0.051
Dose.FC.LYZ.S (log2 fold change) ([1]; dose 10.00 uM): −0.021
Dose.FC.LYZ.NS (log2 fold change) ([2]; dose 0.08 uM): 0.069
Z.LYZ.NS (standard z score) ([2]; dose 0.08 uM): 0.598
Dose.FC.LYZ.NS (log2 fold change) ([2]; dose 0.40 uM): 0.004
Z.LYZ.NS (standard z score) ([2]; dose 0.40 uM): 0.032
Dose.FC.LYZ.NS (log2 fold change) ([2]; dose 2.00 uM): 0.106
Z.LYZ.NS (standard z score) ([2]; dose 2.00 uM): 0.919
Dose.FC.LYZ.NS (log2 fold change) ([2]; dose 10.00 uM): −0.047
Z.LYZ.NS (standard z score) ([2]; dose 10.00 uM): −0.411
Dose.FC.CTG (log2 fold change) ([3]; dose 0.08 uM): 0.083
Dose.FC.CTG (log2 fold change) ([3]; dose 0.40 uM): 0.072
Dose.FC.CTG (log2 fold change) ([3]; dose 2.00 uM): −0.007
Dose.FC.CTG (log2 fold change) ([3]; dose 10.00 uM): 0.077
